pIC50: −log10 of the molar value. Where two headings read alike, the source gives them in different places. One block for each molecule: values may come before it.
Key:
[1] = system: Aβ42 production by human neuroblastoma SH-SY5Y cells; test: Aβ42 production by SH-SY5Y cells, sandwich ELISA of conditioned medium; conditions: for IC50: read-out: IC50 (μM) in cell based abeta assay; for activity in reducing the production of Aβ42 (in words): cell-based assay
Protocol: We used the human Neuroblastoma SH-SY5Y cells for drug testing as a model for Aβ42 production. The cells were cultured in Dulbecco's modified Eagle's medium or Dulbecco's modified Eagle's medium/Ham's F-12 medium supplemented with 10% fetal bovine serum, 100 units/ml penicillin, and 100 μg/ml streptomycin in a humidified atmosphere of 95% air, 5% CO2 at 37° C. as per suppliers instructions. […] Cell toxicity was monitored using the MTT assay and all data reported are corrected for any cell loss.
Sandwich Enzyme-Linked Immunosorbent Assay (sELISA) for Quantization of Aβ42:
The capture antibody, detection antibody and secondary antibody as well as standard purified preparations of Aβ42 were obtained from Sigma-Aldrich. Cells were cultured for 24 h in the presence or absence of compounds and the conditioned medium was subjected to sELISA.

[2] = system: human APP overexpressing Drosophila; test: Survival of human APP overexpressing Drosophila transgenic model; type: in vivo, Drosophila melanogaster; conditions: 100 mg/kg body weight/day with the food
Protocol: The effect of cocrystal of niacin-eugenol/eugenol was tested in a Drosophila model which over expresses the human APP protein. The creation of the APP over expressing flies and other methods for these studies are as described previously by Greeve et al (See J. Neuroscience, 2004, 24:3899-3906). The targeted over/ectopic expression of APP in the brain using UAS promoter driven APP transgene, induced by a specific GAL4 trans-driver in the Drosophila model system was used. Adult flies, a total of 80 flies (4 males and 4 females per tube, 10 tubes) were fed right after their emergence and the survival was examined until the end of 9th day. The drugs to be tested were delivered with the food.

[3] = In vivo pharmacokinetics (plasma and brain niacin and eugenol by HPLC); set-up: species or system male Swiss Albino mice; conditions: male, Swiss Albino, mouse
Protocol: In vivo pharmacokinetic (PK) studies were conducted in male Swiss Albino mice. Niacin-Eugenol physical mixture or Niacin-Eugenol hybrid cocrystal was administered to the animals at a dose of 0.73 mmol/kg orally (n=2 mice per time point). […] Plasma was separated by centrifugation at 4000 rpm for 10 minutes and stored in ice for analysis. Animals were sacrificed at the above time points; and brains were excised, snap frozen in liquid nitrogen and stored at −80° C. Samples were analyzed by high-performance liquid chromatography (HPLC) with UV detection. […] The precipitated proteins were removed by centrifugation at 15000 rpm at 5° C. for 10 min. The supernatant was collected in HPLC vials and kept at 4° C. for analysis. 200 mg of the brain tissue was homogenized in Acetonitrile. The resultant homogenate was centrifuged at 15000 rpm for 10 minutes at 4° C. […] Pharmacokinetic parameters were calculated using WinNonLin v5.2 software. The plasma and brain samples were analyzed for Niacin and Eugenol concentrations using HPLC under the conditions shown below: […]

SMILES: COc1cc(C(C)=O)ccc1OC(=O)c1cccnc1 [Niacin-apocynin hybrid]
- IC50 ([1]; Homo sapiens, SH-SY5Y): 25.3 µM

SMILES: COc1cc(/C=C/C(=O)O)ccc1OC(=O)c1cccnc1 [Niacin-ferulic acid hybrid]
- IC50 ([1]; Homo sapiens, SH-SY5Y): > 50 µM

SMILES: COc1cc(CC2CO2)ccc1OC(=O)c1cccnc1 (stereo not drawn) [Niacin-eugenol epoxide hybrid]
- IC50 ([1]; Homo sapiens, SH-SY5Y): 17.5 µM

SMILES: Oc1ccc(C=Cc2cc(O)cc(O)c2)cc1 [resveratrol]
- effect on survival compared to untreated flies ([2]; early time points): modest effect
- effect on number of surviving flies compared to untreated flies ([2]; end of 9th day (FIG. 7)): no statistically different effect

SMILES: C=CCc1ccc(OC(=O)c2cccnc2)c(OC)c1 [Niacin-eugenol hybrid, Nicotinic acid 4-allyl-2-methoxy-phenyl ester]
- increase in Tmax for eugenol compared to physical mixture [3]: 4 fold
- IC50 ([1]; Homo sapiens, SH-SY5Y): 14 µM
- activity in reducing the production of Aβ42 (in words) [1]: most active among the series
- activity in reducing the production of Aβ42 (in words) ([1]; listed as niacin-eugenol ester linked hybrid): most potent

SMILES: CCCc1ccc(OC(=O)c2cccnc2)c(OC)c1 [Niacin-dihydro eugenol hybrid]
- IC50 ([1]; blocking Aβ42 secretion): > 50 µM

More lines, main results first:

- IC50 ([1]; Homo sapiens, SH-SY5Y): 36.8 µM
SMILES: COc1ccc(/C=C\C(=O)O)cc1OC(=O)c1cccnc1 [Niacin-isofreulic acid hybrid]

- reduction of niacin IC50 in the presence of cinnamic acid ([1]; 5 μM cinnamic acid versus niacin alone): about 15%
- reduction of niacin IC50 in the presence of curcumin ([1]; 5 μM curcumin versus niacin alone): about 27%
- reduction of niacin IC50 in the presence of eugenol ([1]; 5 μM eugenol versus niacin alone): about 45%
- reduction of niacin IC50 in the presence of meclofenamic acid ([1]; 5 μM meclofenamic acid versus niacin alone): about 33%
- pIC50 ([1]; Homo sapiens, SH-SY5Y, read-out: IC50 of niacin in the presence of cinnamic acid, in the presence of 5 μM of cinnamic acid): 5.01
- pIC50 ([1]; Homo sapiens, SH-SY5Y, read-out: IC50 of niacin in the presence of curcumin, in the presence of 5 μM of curcumin): 5.12
- pIC50 ([1]; Homo sapiens, SH-SY5Y, read-out: IC50 of niacin in the presence of eugenol, in the presence of 5 μM of eugenol): 5.23
- pIC50 ([1]; Homo sapiens, SH-SY5Y, read-out: IC50 of niacin in the presence of meclofenamic acid, in the presence of 5 μM of meclofenamic acid): 5.15
- pIC50 ([1]; Homo sapiens, SH-SY5Y, read-out: IC50 of niacin's inhibitory effect on Aβ42 production, niacin alone, SH-SY5Y cells, overnight incubation): 4.97
- pIC50 ([1]; read-out: IC50 of niacin's inhibitory effect on Aβ42 production, niacin alone, SH-SY5Y cells, overnight incubation): ~4.99
SMILES: O=C(O)c1cccnc1 [niacin, pyridine-3-carboxylic acid]
- inhibitory effect of niacin on Aβ42 levels in the media ([1]; 5 and 10 μM niacin): good effect
- inhibition of Aβ42 levels in the media ([1]; 25 and 50 μM niacin): 100%

- IC50 ([1]; Homo sapiens, SH-SY5Y): 44.6 µM
SMILES: COc1cc(C=O)ccc1OC(=O)c1cccnc1 [Niacin-vanillin hybrid, Nicotinic acid 4-formyl-2-methoxy-phenyl ester]
